The test system of data set [1] is Peritoneal macrophage. The data set can be described thus: Cytotoxicity against mouse peritoneal macrophages at 4 uM incubated for 3.5 hrs by MTT assay. Type of data set: toxicity, cell-based. (In general: Tetrazolium assays rely on reduction of a dye to a coloured formazan, in cell work by metabolically active cells.)
The subject of data set [2] is Peritoneal macrophage. The data set is described as follows: Antiinflammatory activity against LPS-stimulated mouse peritoneal macrophage assessed as IL-6 level at 2 uM treated for 3 hrs followed by ATP addition measured after 30 mins by ELISA method. To be noted: time 3.5 hrs. It is filed as functional, cell-based. For orientation: In an ELISA, binding on a coated surface is turned into a signal by an enzyme label.

Data set [3] deals with Peritoneal macrophage. The data set is described as follows: Antiinflammatory activity against LPS-stimulated mouse peritoneal macrophage assessed as TNF-alpha level at 2 uM treated for 3 hrs followed by ATP addition measured after 30 mins by ELISA method relative to control. The note with it: time 3.5 hrs. It is filed as functional.
For data set [4], the system named is Peritoneal macrophage. The data set can be described thus: Antiinflammatory activity against LPS-stimulated mouse peritoneal macrophage assessed as IL-1beta level at 2 uM treated for 3 hrs followed by ATP addition measured after 30 mins by ELISA method relative to control. Type of data set: functional. The note with it: time 3.5 hrs.
Data set [5] relates to Peritoneal macrophage. The data set is described as follows: Antiinflammatory activity against LPS-stimulated mouse peritoneal macrophage assessed as IL-6 level at 2 uM treated for 3 hrs followed by ATP addition measured after 30 mins by ELISA method relative to control. It is filed as functional. The note with it: time 3.5 hrs.
Data set [6] concerns Peritoneal macrophage. The data set can be described thus: Antiinflammatory activity against LPS-stimulated mouse peritoneal macrophage assessed as inhibition of IL-1beta secretion treated for 3 hrs followed by ATP addition measured after 30 mins by ELISA method. Type of data set: functional, cell-based.

Each structure is given as a SMILES string. pIC50: −log10 of the molar value. Calls of active or inactive are those of the source. The calls are words filed in the database; no cut-off is given here.

The text below walks through data of ChEMBL document CHEMBL5380810, “Scaffold Hybrid of the Natural Product Tanshinone I with Piperidine for the Discovery of a Potent NLRP3 Inflammasome Inhibitor” (J Med Chem, 2023).

Take `Cc1cccc2c3c(ccc12)-c1oc2c(c1C(=O)C3=O)CCN(CCCN1CCN(C)CC1)C2`: the Activity entry in data set [1] is recorded as “Non-Toxic”; in data set [3], 51%; in data set [4], 95%. In addition, the result in data set [2] was inactive.

On to `CCCCN1CCc2c(oc3c2C(=O)C(=O)c2c-3ccc3c(C)cccc23)C1`, for which the results for the Activity entry in data set [1], in data set [3] and in data set [4] were “Non-Toxic”, 14% and 38%, respectively. Moreover, the result in data set [2] was inactive.

Turning to `CNC(=O)CN1CCc2c(oc3c2C(=O)C(=O)c2c-3ccc3c(C)cccc23)C1`, the Activity result is recorded as “Non-Toxic” in data set [1], 36% in data set [3], 19% in data set [5] and 92% in data set [4].

For `COC(=O)[C@H](Cc1ccccc1)N1CCc2c(oc3c2C(=O)C(=O)c2c-3ccc3c(C)cccc23)C1`, the Activity result is listed as “Non-Toxic” in data set [1], 24% in data set [3] and 23% in data set [4]. Further, in data set [2], the result was inactive.

On to `Cc1cccc2c3c(ccc12)-c1oc2c(c1C(=O)C3=O)CCN(CCCN1CCCC1)C2`, for which the Activity entry was “Non-Toxic” in data set [1], 13% in data set [3], 31% in data set [5] and 94% in data set [4].

In the case of `Cc1cccc2c3c(ccc12)-c1oc2c(c1C(=O)C3=O)CCN(CCC(=O)N1CCOCC1)C2`, the Activity entry is recorded as “Non-Toxic” in data set [1], 10% in data set [3] and 92% in data set [4]. The outcome in data set [2] was inactive.

As to `Cc1cccc2c3c(ccc12)-c1oc2c(c1C(=O)C3=O)CCN(CCCN1CCC(N3CCOCC3)CC1)C2`, the Activity entry in data set [1] is “Non-Toxic”; in data set [3] it was 40%; in data set [4] it was 88%. The outcome in data set [2] was inactive.

As usually defined, the pIC50 is −log10 of the IC50, conventionally taken in molar units. Regarding `Cc1cccc2c3c(ccc12)-c1oc2c(c1C(=O)C3=O)CCN([C@@H](C)C(=O)N1CCN(C)CC1)C2`, the Activity result in data set [1] is “Non-Toxic”; in data set [3], 33%; in data set [4], 97%. Also, in data set [2], the result was inactive. The pIC50 in data set [6] was 6.42.

For the compound `Cc1cccc2c3c(ccc12)-c1oc2c(c1C(=O)C3=O)CCN([C@@H](C)CO)C2`, the Activity entry is reported as “Non-Toxic” in data set [1], 40% in data set [3] and 49% in data set [4]. Further, the outcome in data set [2] was inactive.

As for `Cc1cccc2c3c(ccc12)-c1oc2c(c1C(=O)C3=O)CCN(CCCN1CC[C@@H](O)C1)C2`, the Activity result in data set [1] is listed as “Non-Toxic”; in data set [3] it was 33%; in data set [4], 92%. In addition, the outcome in data set [2] was inactive.

As to `COC(=O)CCCN1CCc2c(oc3c2C(=O)C(=O)c2c-3ccc3c(C)cccc23)C1`, the Activity result in data set [1] is “Non-Toxic”; in data set [3] it was 43%; in data set [5], 32%; in data set [4] it was 67%.

Turning to `COC(=O)CCN1CCc2c(oc3c2C(=O)C(=O)c2c-3ccc3c(C)cccc23)C1`, the Activity entry in data set [1] was “Non-Toxic”; in data set [3] it was 46%; in data set [5] it was 34%; in data set [4], 87%.

Take `Cc1cccc2c3c(ccc12)-c1oc2c(c1C(=O)C3=O)CCN(CC(=O)N1CCN(C)CC1)C2`: the Activity result in data set [1] is “Non-Toxic”; in data set [3], 35%; in data set [4], 77%. The outcome in data set [2] was inactive.

On to `Cc1cccc2c3c(ccc12)-c1oc2c(c1C(=O)C3=O)CCN(CCCN(C)C)C2`, for which the Activity result in data set [1] was “Non-Toxic”; in data set [3], 19%; in data set [5], 8%; in data set [4], 95%.

As to `Cc1cccc2c3c(ccc12)-c1oc2c(c1C(=O)C3=O)CCNC2`, the Activity entry in data set [1] is “Non-Toxic”; in data set [3], 22%; in data set [5], 13%; in data set [4], 16%.

For the compound `Cc1cccc2c3c(ccc12)-c1oc2c(c1C(=O)C3=O)CCN(CCN1CCN(C)CC1)C2`, the Activity entry in data set [1] is “Non-Toxic”; in data set [3], 19%; in data set [4], 61%. For the same compound, the outcome in data set [2] was inactive.

Consider `Cc1cccc2c3c(ccc12)-c1oc2c(c1C(=O)C3=O)CCN(CCN(C)C)C2`, for which the Activity entry was “Non-Toxic” in data set [1], 20% in data set [3], 3% in data set [5] and 88% in data set [4].

On to `Cc1cccc2c3c(ccc12)-c1oc2c(c1C(=O)C3=O)CCN(C)C2`, for which the Activity result in data set [1] was “Non-Toxic”; in data set [3], 16%; in data set [5], 18%; in data set [4], 40%.

For `COC(=O)CC[C@@H](C(=O)OC)N1CCc2c(oc3c2C(=O)C(=O)c2c-3ccc3c(C)cccc23)C1`, the Activity entry in data set [1] is reported as “Non-Toxic”; in data set [3] it was 58%; in data set [5], 41%; in data set [4], 65%.

Regarding `Cc1cccc2c3c(ccc12)-c1oc2c(c1C(=O)C3=O)CCN(CCS(C)(=O)=O)C2`, the Activity entry in data set [1] is given as “Non-Toxic”; in data set [3], 46%; in data set [4] it was 90%. In addition, the outcome in data set [2] was inactive.

Take `Cc1cccc2c3c(ccc12)-c1oc2c(c1C(=O)C3=O)CCN(CCCn1ccnc1)C2`: the Activity result is given as “Non-Toxic” in data set [1], 17% in data set [3] and 95% in data set [4]. The result in data set [2] was inactive.

On to `CC(C)(O)c1coc(S(=O)(=O)NC(=O)Nc2c3c(cc4c2CCC4)CCC3)c1`, for which the outcome in data set [2] was inactive. Further, the Activity in data set [3] stood at 12%; in data set [4], 98%.

Regarding `COC(=O)[C@H](C)N1CCc2c(oc3c2C(=O)C(=O)c2c-3ccc3c(C)cccc23)C1`, the Activity entry is on record as “Non-Toxic” in data set [1], 25% in data set [3] and 65% in data set [4]. Moreover, the outcome in data set [2] was inactive.

Take `COC(=O)CN1CCc2c(oc3c2C(=O)C(=O)c2c-3ccc3c(C)cccc23)C1`: the Activity result is “Non-Toxic” in data set [1], 31% in data set [3], 6% in data set [5] and 70% in data set [4].

As for `Cc1cccc2c3c(ccc12)-c1oc2c(c1C(=O)C3=O)CCN([C@H](CO)Cc1ccccc1)C2`, the Activity entry in data set [1] is “Non-Toxic”; in data set [3] it was 45%; in data set [5] it was 9%; in data set [4] it was 56%.

For the compound `CNC(=O)[C@H](C)N1CCc2c(oc3c2C(=O)C(=O)c2c-3ccc3c(C)cccc23)C1`, the Activity entry is given as “Non-Toxic” in data set [1], 31% in data set [3] and 96% in data set [4]. In data set [2], the result was inactive.

Consider `Cc1cccc2c3c(ccc12)-c1oc2c(c1C(=O)C3=O)CCN(CC(=O)N(C)C)C2`, for which the Activity entry is “Non-Toxic” in data set [1], 52% in data set [3], 11% in data set [5] and 71% in data set [4].

For the compound `Cc1cccc2c3c(ccc12)-c1oc2c(c1C(=O)C3=O)CCN(CCn1ccnc1)C2`, the Activity result is “Non-Toxic” in data set [1], 29% in data set [3] and 96% in data set [4]. In addition, the result in data set [2] was inactive.
